Entries after “also recorded” stand apart in the source; their conditions may differ.
Tested on: subjects with chronic obstructive pulmonary disease and a low peak inspiratory flow rate
Assay: 28-day randomized, double-blind, double-dummy, parallel-group clinical study: once-daily revefenacin by nebulizer vs once-daily tiotropium by dry powder inhaler, lung function
Type: in vivo, human
Settings: for Trough FEV1, LS Difference (SE), REV vs TIO / Trough FVC, LS Difference (SE), REV vs TIO / Trough IC, LS Difference (SE), REV vs TIO: REV 175 μg nebulizer vs TIO 18 μg dry powder inhaler; for Trough FEV1, LS Mean (SE) / Trough FVC, LS Mean (SE) / Trough IC, LS Mean (SE): change from baseline after 28 once-daily doses, TIO 18 μg dry powder inhaler, REV 175 μg nebulizer
Procedure: A 28-day, randomized, double-blind, double-dummy, parallel-group study was conducted to compare once-daily revefenacin (175 μg of revefenacin in 3 mL of an isotonic, sterile aqueous solution containing sodium chloride, citric acid, sodium citrate, and water for injection at pH 5.0) delivered using a nebulizer (Trek S jet nebulizer (PARI, Midlothian, Va., USA) with once-daily tiotropium (18 μg/day) delivered using a dry powder inhaler (Spiriva HandiHaler, Boebringer Ingelheim Pharmaceuticals, Inc., Ridgefield, Conn., USA) on lung function in subjects with chronic obstructive pulmonary disease and a low peak inspiratory flow rate. Subjects with moderate to very severe COPD were allowed to use concurrent respiratory therapy with the exception of other inhaled anticholinergics. The primary endpoint of the study was the change from baseline in trough forced expiratory volume in one second (FEV1) after the 28th dose. Secondary endpoints included the change from baseline in peak FEV1, trough forced vital capacity (FVC), peak FVC and trough inspiratory capacity (IC) as well as the safety and tolerability of revefenacin 175 μg. Inclusion criteria were: age≥40 years; a smoking history≥10 pack years; a diagnosis of COPD (post-bronchodilator FEV1≤80% predicted and FEV/FVC≤70%); peak inspiratory flow rate (PIFR)<60 L/min as measured by IN-CHECK® DIAL device with resistance set to DISKUS® at screening.
In this study, revefenacin (REV) (administered using a nebulizer) or tiotropium (TIC)) (administered using a dry powder inhaler) was dosed once-daily for 28 days, Peak inspiratory flow rates (best of three) were determined at screening, randomization and end of study using the IN-CHECK® DIAL device with the resistance set to a resistance equal or similar to the resistance associated with the DISKUS® device. FEV1, FVC and IC were measured at baseline and/or peak on day 1 and on day 29. Safety was assessed via the collection of adverse events.

[1] = % predicted FEV1 <50% subpopulation, PIFR <60 L/min
[2] = ITT population, all subjects PIFR <60 L/min
[3] = ITT population, all subjects low PIFR, listed as revefenacin
[4] = subjects with low PIFR (<60 L/min) and percent predicted FEV1 <50%, listed as revefenacin

SMILES	Trough FEV1, LS Difference (SE), REV vs TIO [1]	Trough FVC, LS Difference (SE), REV vs TIO [1]	Trough IC, LS Difference (SE), REV vs TIO [1]	Trough FEV1, LS Mean (SE) [1]	Trough FVC, LS Mean (SE) [1]	Trough IC, LS Mean (SE) [1]	Trough IC, revefenacin by nebulizer compared to tiotropium by dry powder inhaler (in words) (ITT population or subpopulation with low PIFR and percent predicted FEV1 <50%, listed as revefenacin)	Trough FEV1, LS Difference (SE), REV vs TIO (ITT population, PIFR <60 L/min)	Trough FVC, LS Difference (SE), REV vs TIO (ITT population, PIFR <60 L/min)	Trough IC, LS Difference (SE), REV vs TIO (ITT population, PIFR <60 L/min)	Trough FEV1, LS Mean (SE) [2]	Trough FVC, LS Mean (SE) [2]	Trough IC, LS Mean (SE) [2]	Trough FEV1, revefenacin by nebulizer compared to tiotropium by dry powder inhaler (in words) [3]	Trough FVC, revefenacin by nebulizer compared to tiotropium by dry powder inhaler (in words) [3]	Trough FEV1, revefenacin by nebulizer compared to tiotropium by dry powder inhaler (in words) [4]	Trough FVC, revefenacin by nebulizer compared to tiotropium by dry powder inhaler (in words) [4]
CN(CCN1CCC(OC(=O)Nc2ccccc2-c2ccccc2)CC1)C(=O)c1ccc(CN2CCC(C(N)=O)CC2)cc1 [REV, 1-(2-{4-[(4-carbamoylpiperidin-1-yl)methyl]-N-methylbenzamido}ethyl) piperidin-4-yl N-([1,1′-biphenyl]-2-yl)carbamate]	47.3 (21.76)	99.9 (48.75)	13.7 (45.43)	74.8 (20.85)	146.5 (46.69)	89.7 (42.85)	No differences in trough IC were noted; also recorded: statistically significant difference in trough IC was not observed	15.7 (22.35)	69.6 (42.90)	−12.7 (47.38)	63.0 (20.17)	125.4 (38.75)	71.4 (42.33)	did not meet statistical significance nor clinical relevance; also recorded: statistically significant difference in trough FEV1 was not observed	did not meet statistical significance nor clinical relevance; also recorded: statistically significant difference in trough FVC was not observed	statistically significant and clinically relevant greater improvements; also recorded: statistically significant difference in trough FEV1 was observed	statistically significant and clinically relevant greater improvements; also recorded: statistically significant difference in trough FVC was observed
C[N+]1(C)[C@@H]2C[C@@H](OC(=O)C(O)(c3cccs3)c3cccs3)C[C@H]1[C@@H]1O[C@@H]12 [TIO, tiotropium, reference compound]	–	–	–	27.5 (19.53)	46.7 (43.56)	76.0 (40.40)	–	–	–	–	47.3 (19.06)	55.8 (36.62)	84.1 (40.02)	–	–	–	–

— patent publication US20230255952A1, “METHODS FOR TREATING CHRONIC OBSTRUCTIVE PULMONARY DISEASE” (THERAVANCE BIOPHARMA R&D IP, LLC, priority 2018, published 2023)
